Active and inactive are the calls of the source. The calls are words filed in the database; no cut-off is given here.
Legend:
BT-549 [1] = assay: Induction of apoptosis in human BT-549 cells transfected with Beclin1 siRNA assessed as increase in cleaved PARP level measured after 48 hrs by western blot analysis; assay type: functional, cell-based
BT-549 [2] = assay: Induction of apoptosis in human BT-549 cells assessed as viable cells incubated for 48 hrs by AnnexinV-FITC and propidium iodide staining based flow cytometry analysis(reference value: 98.6%); assay type: functional
BT-549 [3] = assay: Induction of apoptosis in human BT-549 cells assessed as early apoptotic cells incubated for 48 hrs by AnnexinV-FITC and propidium iodide staining based flow cytometry analysis(reference value: 0.609%); assay type: functional
BT-549 [4] = assay: Induction of apoptosis in human BT-549 cells assessed as late apoptotic cells incubated for 48 hrs by AnnexinV-FITC and propidium iodide staining based flow cytometry analysis(reference value: 0.599%); assay type: functional
BT-549 [5] = assay: Induction of apoptosis in human BT-549 cells assessed as necrotic cells incubated for 48 hrs by AnnexinV-FITC and propidium iodide staining based flow cytometry analysis(reference value: 0.145%); assay type: functional
[6] = target: T1, Apoptosis regulator Bcl-2 (Homo sapiens, UniProt P10415); assay: Induction of Bcl-2 phosphorylation-mediated protein degradation in human HepG2 cells assessed as decrease in Bcl-2 expression at 0.4 to 6.4 uM measured after 48 hrs by western blot analysis; assay type: cell-based; details: dose 0.4-6.4 µM
[7] = target: T1, Apoptosis regulator Bcl-2; assay: Induction of Bcl-2 phosphorylation-mediated protein degradation in human U251 cells assessed as decrease in Bcl-2 expression at 0.4 to 6.4 uM measured after 48 hrs by western blot analysis; assay type: cell-based; details: U-251, dose 0.4-6.4 µM
[8] = target: T1, Apoptosis regulator Bcl-2; assay: Induction of Bcl-2 phosphorylation-mediated protein degradation in human HepG2 cells assessed as decrease in Bcl-2 expression at 0.4 uM measured after 12 to 48 hrs by western blot analysis; assay type: cell-based; details: time 12-48 hrs
[9] = target: T1, Apoptosis regulator Bcl-2; assay: Induction of Bcl-2 phosphorylation-mediated protein degradation in human U251 cells assessed as decrease in Bcl-2 expression at 0.4 uM measured after 12 to 48 hrs by western blot analysis; assay type: cell-based; details: U-251, time 12-48 hrs
HepG2 [10] = assay: Cytotoxicity against human HepG2 cells at 0.1 to 1.6 uM measured after 48 hrs in presence of 20 uM autophagy inhibitor, chloroquine by CCK8 assay; assay type: functional, cell-based; details: dose 0.1-1.6 µM
U-251 [11] = assay: Cytotoxicity against human U251 cells at 0.1 to 1.6 uM measured after 48 hrs in presence of 20 uM autophagy inhibitor, chloroquine by CCK8 assay; assay type: functional, cell-based; details: dose 0.1-1.6 µM
MDA-MB-231 [12] = assay: Antitumor activity against human MDA-MB-231 cells xenografted in BALB/c mouse assessed as tumor growth inhibition at 3 mg/kg, ip administered every other day measured every 3 days by vernier caliper analysis; assay type: functional, organism-based
[13] = target: T1, Apoptosis regulator Bcl-2; assay: Induction of Bcl-2 phosphorylation-mediated protein degradation in human MDA-MB-231 cells assessed as decrease in Bcl-2 expression at 0.1 to 0.2 uM pretreated with proteasome inhibitor, MG132 for 2 hrs followed by incubation with compound for 48 hrs by western blot analysis; assay type: cell-based; details: dose 0.1-0.2 µM
[14] = target: T1, Apoptosis regulator Bcl-2; assay: Induction of Bcl-2 phosphorylation-mediated protein degradation in human BT549 cells assessed as decrease in Bcl-2 expression at 0.1 to 0.2 uM pretreated with proteasome inhibitor, MG132 for 2 hrs followed by incubation with compound for 48 hrs by western blot analysis; assay type: cell-based; details: BT-549, dose 0.1-0.2 µM
[15] = target: T1, Apoptosis regulator Bcl-2; assay: Induction of Bcl-2 phosphorylation-mediated protein degradation in human MCF7 cells assessed as decrease in Bcl-2 expression at 0.1 to 0.2 uM pretreated with proteasome inhibitor, MG132 for 2 hrs followed by incubation with compound for 48 hrs by western blot analysis; assay type: cell-based; details: dose 0.1-0.2 µM
[16] = target: T1, Apoptosis regulator Bcl-2; assay: Upregulation of Bcl-2 phosphorylation at Ser70 residue in human MDA-MB-231 cells at 0.05 to 0.4 microM incubated for 48 hrs by western blot analysis; assay type: cell-based; details: dose 0.05-0.4 µM
[17] = target: T1, Apoptosis regulator Bcl-2; assay: Upregulation of Bcl-2 phosphorylation at Ser70 residue in human BT549 cells at 0.05 to 0.4 microM incubated for 48 hrs by western blot analysis; assay type: cell-based; details: BT-549, dose 0.05-0.4 µM
[18] = target: T1, Apoptosis regulator Bcl-2; assay: Upregulation of Bcl-2 phosphorylation at Ser70 residue in human MCF7 cells at 0.05 to 0.4 microM incubated for 48 hrs by western blot analysis; assay type: cell-based; details: dose 0.05-0.4 µM
[19] = target: T1, Apoptosis regulator Bcl-2; assay: Upregulation of Bcl-2 phosphorylation at Ser70 residue in human MDA-MB-231 cells at 0.1 microM incubated for 12 to 36 hrs by western blot analysis; assay type: cell-based; details: time 12-36 hrs
[20] = target: T1, Apoptosis regulator Bcl-2; assay: Upregulation of Bcl-2 phosphorylation at Ser70 residue in human BT549 cells at 0.1 microM incubated for 12 to 36 hrs by western blot analysis; assay type: cell-based; details: BT-549, time 12-36 hrs
[21] = target: T1, Apoptosis regulator Bcl-2; assay: Upregulation of Bcl-2 phosphorylation at Ser70 residue in human MCF7 cells at 0.1 microM incubated for 12 to 36 hrs by western blot analysis; assay type: cell-based; details: time 12-36 hrs
MDA-MB-231 [22] = assay: Effect on Beclin1 expression in human MDA-MB-231 cells at 0.2 uM measured after 48 hrs by western blot analysis; assay type: functional, cell-based
BT-549 [23] = assay: Induction of apoptosis in human BT-549 cells assessed as viable cells incubated for 48 hrs in presence of 20 uM autophagy inhibitor, CQ by AnnexinV-FITC and propidium iodide staining based flow cytometry analysis(reference value: 94.6%); assay type: functional
BT-549 [24] = assay: Induction of apoptosis in human BT-549 cells assessed as early apoptotic cells incubated for 48 hrs in presence of 20 uM autophagy inhibitor, CQ by AnnexinV-FITC and propidium iodide staining based flow cytometry analysis(reference value: 1.94%); assay type: functional
BT-549 [25] = assay: Induction of apoptosis in human BT-549 cells assessed as late apoptotic cells incubated for 48 hrs in presence of 20 uM autophagy inhibitor, CQ by AnnexinV-FITC and propidium iodide staining based flow cytometry analysis(reference value: 2.64%); assay type: functional
BT-549 [26] = assay: Induction of apoptosis in human BT-549 cells assessed as necrotic cells incubated for 48 hrs in presence of 20 uM autophagy inhibitor, CQ by AnnexinV-FITC and propidium iodide staining based flow cytometry analysis(reference value: 0.86%); assay type: functional
MDA-MB-231 [27] = assay: Antitumor activity against human MDA-MB-231 cells xenografted in BALB/c mouse assessed as tumor growth inhibition at 3 mg/kg, ip administered with compound every other day and with 10 mg/kg, ip CQ every day and measured every 3 days by vernier caliper analysis; assay type: functional, organism-based
Mus musculus = assay: Downregulation of Ki67 expression in tumor tissue of BALB/c mouse xenografted with human MDA-MB-231 cells at 3 mg/kg, ip administered with compound every other day and with 10 mg/kg, ip CQ every day by immunohistochemical staining; assay type: functional, organism-based
HepG2 [28] = assay: Induction of autophagy in human HepG2 cells assessed as increase in LC3-II expression at 0.4 to 6.4 uM measured after 48 hrs by western blot analysis; assay type: functional, cell-based; details: dose 0.4-6.4 µM
HepG2 [29] = assay: Induction of autophagy in human HepG2 cells assessed as increase in LC3-II expression at 0.4 uM measured after 12 to 48 hrs by western blot analysis; assay type: functional, cell-based; details: time 12-48 hrs
U-251 [30] = assay: Induction of autophagy in human U251 cells assessed as increase in LC3-II expression at 0.4 to 6.4 uM measured after 48 hrs by western blot analysis; assay type: functional, cell-based; details: dose 0.4-6.4 µM
U-251 [31] = assay: Induction of autophagy in human U251 cells assessed as increase in LC3-II expression at 0.4 uM measured after 12 to 48 hrs by western blot analysis; assay type: functional, cell-based; details: time 12-48 hrs

T1 sequence (P10415 whole entry): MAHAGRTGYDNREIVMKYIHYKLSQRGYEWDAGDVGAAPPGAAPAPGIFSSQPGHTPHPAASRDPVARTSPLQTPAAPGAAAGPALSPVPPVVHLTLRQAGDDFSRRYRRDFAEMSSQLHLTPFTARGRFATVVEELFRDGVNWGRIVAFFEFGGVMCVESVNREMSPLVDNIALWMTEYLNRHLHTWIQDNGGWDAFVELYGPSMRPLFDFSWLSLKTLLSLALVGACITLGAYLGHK

For `C/C(=C\c1csc(C)n1)[C@@H]1C[C@@H]2O[C@]2(C)CCC[C@H](C)[C@H](O)[C@@H](C)C(=O)C(C)(C)[C@@H](O)CC(=O)N1` [IXABEPILONE], the Activity (BT-549 [1]) was “Active”, the Activity (BT-549 [2]) was 86.3% and the Activity (BT-549 [3]) was 2.17%. For the same compound, the Activity (BT-549 [4]) was 10%, the Activity (BT-549 [5]) was 1.47% and the Activity [6] was “Active”. The Activity [7] was “Active”, the Activity [8] was “Active” and the Activity [9] was “Active”. For the same compound, the Activity (HepG2 [10]) was “Active”, the Activity (U-251 [11]) was “Active” and the Activity (MDA-MB-231 [12]) was “Active”. For the same compound, the Activity [13] was “inactive”, the Activity [14] was “inactive” and the Activity [15] was “inactive”. For the same compound, the Activity [16] was “Active”, the Activity [17] was “Active” and the Activity [18] was “Active”. The Activity [19] was “Active”, the Activity [20] was “Active” and the Activity [21] was “Active”. The Activity (MDA-MB-231 [22]) was “inactive”, the Activity (BT-549 [23]) was 74.3% and the Activity (BT-549 [24]) was 4.2%. For the same compound, the Activity (BT-549 [25]) was 18%, the Activity (BT-549 [26]) was 3.53% and the Activity (MDA-MB-231 [27]) was “Active”. The inhibition (Mus musculus) was “Active”, the Activity (HepG2 [28]) was “Active” and the Activity (HepG2 [29]) was “Active”. For the same compound, the Activity (U-251 [30]) was “Active” and the Activity (U-251 [31]) was “Active”.

Source: ChEMBL document CHEMBL4765332, “A multi-scale systems pharmacology approach uncovers the anti-cancer molecular mechanism of Ixabepilone” (Eur J Med Chem, 2020)
